From patent US8119640B2, “Hedgehog pathway antagonists methods of use” (The Board of Trustees of the Leland Stanford Junior …, priority 2008, dated 2012)
“Also recorded” adds a separate entry of the source.

What was measured:
FLAG-Gli2 [1] = experiment: Analysis of Gli2 processing and Shh-dependent Gli2 stabilization; format: cell-based, mouse; settings: Shh-EGFP FLAG-Gli2 cells, absence and presence of Shh, 24 h
Description: Analysis of Gli2 processing and Shh-dependent Gli2 stabilization. […] Each compound incubation was also done in the absence and presence of 5% Shh-N-conditioned medium, and the cells were maintained under these conditions for 24 h. The cells were subsequently solubilized in lysis buffer (100 μL/well; 50 mM Tris-HCl, pH 7.4, 1% Triton X-100, 250 mM NaCl, 2 mM EDTA, 20 mM NaF, 2 mM Na3VO4, 2 mM 2-mercaptoethanol, EDTA-free protease inhibitor cocktail (Roche)). This suspension was transferred to a 1.5-mL centrifuge tube and incubated on ice for 30 min, with vortexing every 5 min. The cell lysates were then centrifuged at 20,000×g at 4° C. for 20 min. Supernatants were removed, and a BCA protein assay was performed to quantify protein levels. Mouse anti-FLAG M2 agarose slurry (20 μL, Sigma) was pelleted by centrifugation and incubated with 800 ng of protein from each condition for 90 min at 4° C. and then washed three times with 1 mL of wash buffer (75 mM Tris-HCl buffer, pH 8.0 containing 225 mM NaCl, 0.5% Triton X-100) and centrifuged at 2,300×g at 4° C. The agarose beads were suspended in 30 μL of 1×SDS-PAGE sample buffer (50 mM Tris-HCl, pH 6.8 containing 10% glycerol, 2% SDS, 50 mM DTT, 200 mM 2-mercaptoethanol, and 0.001% bromophenol blue), and the mixture was boiled for 5 min. The samples were then resolved on a 4-12% Bis-Tris Criterion XT gel and transferred to a PVDF membrane. The membrane was dehydrated with methanol, and then probed with rabbit anti-FLAG antibody (Sigma; 1:1,000 dilution in blocking buffer (PBS 21 containing 3% non-fat dried milk and 0.01% Tween 20)) for 90 min. […] Blots were washed 4×3 min in PBS, and the immunoreactive bands were detected with a SuperSignal West Dura kit and a ChemiDoc XRS system. Protein bands were quantified using Quantity One software (Bio-Rad). For each experiment, boxes of equal size were drawn around the FLAG-Gli2 and FLAG-Gli2R bands. Band intensities were then normalized to the average intensity for all bands in a given experiment. The results from all experiments were averaged and normalized relative to the basal level of FLAG-Gli2 (DMSO treatment without Shh-N-conditioned medium).

Gli2 αPKA = experiment: Hh pathway activation by overexpressed Gli2 phosphosite mutants; format: cell-based; settings: NIH-3T3 cells; 15 μM HPI-1, 20 μM HPI-2
Description: Hh pathway activation mediated by the overexpression of Gli, Gli2, Gli2αPKA, or Gli2αGSK. […] The cells were co-transfected the following day with 220 ng/well pcDNA-derived Gli1, Gli2, or Gli2 phosphosite mutant expression vectors and 80 ng/well of a 1:15 mixture of phRLTK (Promega) and 8XGIiBS-FL. After transfection, cells were grown to confluence (approximately 48 h). The cell were then incubated for an additional 28-32 h in DMEM containing 0.5% CS, 100 U/mL penicillin, 0.1 mg/mL streptomycin, and either DMSO, 50 μM forskolin, 50 μM LY294002, or various concentrations of the HPIs. Firefly and Renilla luciferase activities were measured using a dual luciferase kit and a Veritas microplate luminometer.

CREB = experiment: PKA-mediated CREB phosphorylation assay; format: cell-based; settings: NIH-3T3 cells; 15 μM HPI-1, 20 μM HPI-2
Description: PKA-mediated CREB phosphorylation assay. […] The cells were cultured for an additional 2 h and then lysed in hot 2×SDS-PAGE sample buffer (100 mM Tris, pH 6.8, 200 mM DTT, 0.02% bromophenol blue, 16 20 mM NaF, 2 mM sodium orthovandate, 4% SDS, and 20% glycerol). After the samples were boiled for 5 min, they were resolved on 4-12% Criterion XT gels (Bio-Rad) and transferred to PVDF membranes (Millipore). The membranes were blocked overnight in TBST buffer (Trisbuffered saline with 0.1% Tween 20) containing 5% bovine serum albumin and then probed with either anti-phosphorylated CREB (87G3, Cell Signaling Technology; 1:1,000 dilution) or CREB (48H2, Cell Signaling Technology, 1:1,000 dilution) antibodies.

FLAG-Gli2 [2] = experiment: Immunostaining of FLAG-Gli2 line: ciliary FLAG-Gli2 and primary cilia; format: cell-based, mouse; settings: for Ciliary levels of FLAG-Gli2: Shh-EGFP FLAG-Gli2 cells, immunofluorescence
Description: Immunostaining of FLAG-Gli lines and NIH-3T3 cells. The FLAG-Gli1-expressing or FLAG-Gli2-expressing clonal cell lines were seeded into 24-well plates (80,000 cells/well) containing poly-D-lysine-coated 12-mm glass coverslips. […] The cells were subsequently fixed in 4% paraformaldehyde for 10 min at room temperature followed by treatment with methanol at −20° C. for 2 to 5 min. The cells were washed with PBS, permeabilized with 0.2% Triton X-100 for 2 to 5 min, and then blocked with PBS containing 2% BSA for 3 h at room temperature. The coverslips were then treated with mouse anti-FLAG M2 antibody (Sigma; 1:1,000 dilution in blocking buffer) and rabbit anti-Arl13b (10) (1:1,000 dilution in blocking buffer) for 3 h at room temperature and washed 3×5 min with PBS. The coverslips were incubated next with Alexa Fluor 594-conjugated goat anti-mouse IgG and Alexa Fluor 488-conjugated donkey anti-rabbit IgG antibodies (Invitrogen; 1:1,000 dilutions in blocking buffer) for 2 h at room temperature. After washes with PBS and a 5-min incubation with 4,6-diamidino-2-phenylindole (DAPI), the samples were mounted using Prolong Gold (Invitrogen) and imaged with an upright Leica DM4500B compound microscope. In order to quantify ciliary Gli2 localization, a circular region with diameter equal to the average width of cilia as determined by the anti-Arl13b antibody staining was manually placed at the distal end of each cilium. Regions were transferred from the anti-Arl13b antibody image to the anti-FLAG antibody image, and FLAG staining intensities within those areas were assessed. Between 40 and 80 cilia were analyzed for each condition. To normalize ciliary FLAG-Gli2 levels with respect to compound-dependent changes in total FLAG-Gli2 levels, the absolute average intensities for each condition were divided by the fold change in FLAG-Gli2 levels, as determined by the quantitative immunoblotting described above. Quantification of ciliary FLAG-Gli1 levels was performed in an analogous manner. Since HPI-4 perturbs primary cilia formation, only Arl13b-positive structures that could be clearly identified as cilia were used for Gli protein quanitification in HPI-4-treated cells. To assess cytoplasmic microtubule structures in cells treated with the HPIs, NIH-3T3 cells were cultured on poly-D-lysine-coated 12-mm glass coverslip, treated with the HPIs, and fixed with 4% paraformalehyde as described above. In place of the methanol treatment, the cells were permeabilitized with PBS containing 0.1% Triton X-100 for 1 min. Washing, blocking, and antibody incubation steps were then conducted as before, using mouse anti-<-tubulin (DM1-A, Sigma, 1:2,000 in blocking buffer). Secondary antibody treatments, DAPI staining, mounting, and imaging were then conducted as described above.

FLAG-Gli1 = experiment: Immunostaining of FLAG-Gli1 line: FLAG-Gli1 localization; format: cell-based, mouse; settings: Shh-LIGHT2 FLAG-Gli1 cells
Description: Immunostaining of FLAG-Gli lines and NIH-3T3 cells. The FLAG-Gli1-expressing or FLAG-Gli2-expressing clonal cell lines were seeded into 24-well plates (80,000 cells/well) containing poly-D-lysine-coated 12-mm glass coverslips. […] The cells were subsequently fixed in 4% paraformaldehyde for 10 min at room temperature followed by treatment with methanol at −20° C. for 2 to 5 min. The cells were washed with PBS, permeabilized with 0.2% Triton X-100 for 2 to 5 min, and then blocked with PBS containing 2% BSA for 3 h at room temperature. […] In order to quantify ciliary Gli2 localization, a circular region with diameter equal to the average width of cilia as determined by the anti-Arl13b antibody staining was manually placed at the distal end of each cilium. Regions were transferred from the anti-Arl13b antibody image to the anti-FLAG antibody image, and FLAG staining intensities within those areas were assessed. Between 40 and 80 cilia were analyzed for each condition. To normalize ciliary FLAG-Gli2 levels with respect to compound-dependent changes in total FLAG-Gli2 levels, the absolute average intensities for each condition were divided by the fold change in FLAG-Gli2 levels, as determined by the quantitative immunoblotting described above. Quantification of ciliary FLAG-Gli1 levels was performed in an analogous manner. […]

Row | Structure (SMILES) | FLAG-Gli2 levels and processing (immunoblotting) (FLAG-Gli2 [1]) | Sensitivity of overexpressed Gli2 αPKA mutant to compound (Gli2 αPKA) | PKA-dependent phosphorylation of CREB (CREB) | Ciliary levels of FLAG-Gli2 (FLAG-Gli2 [2]) | Primary cilia formation (FLAG-Gli2 [2]; 30 μM HPI-4) | Ciliary FLAG-Gli1 levels (FLAG-Gli1) | Subcellular localization of FLAG-Gli1 (FLAG-Gli1)
1 | COCCOC(=O)C1=C(C)NC2=C(C(=O)CC(c3ccccc3OC)C2)C1c1cccc(O)c1 (mixture of isomers) [Compound 8, 4-(3-Hydroxy-phenyl)-7-(2-methoxy-phenyl)-2-methyl-5-oxo-1,4,5,6,7,8-hexahydro-quinoline-3-carboxylic acid 2-methoxy-ethyl ester] | slightly elevated levels of full-length and repressor forms of FLAG-Gli2 under basal conditions and greater FLAG-Gli2 processing upon Shh stimulation | partially resistant | does not induce the PKA-dependent phosphorylation |  |  |  | 
2 | OCCNc1nc(N2CCN(c3ccccc3)CC2)nc2ccccc12 [Compound 11] | moderately increased total FLAG-Gli2 levels as well but did not alter proteolytic processing of the transcription factor |  |  | increased ciliary levels of FLAG-Gli2 |  |  | 
3 | COc1ccc(OC)c2c1cc1n2CC(C)(C(=O)NC2CCCCCCC2)N(CCN(C)C)C1=O (centres unmarked) [Compound 17] | moderately increased total FLAG-Gli2 levels as well but did not alter proteolytic processing of the transcription factor | partially resistant | significantly lower than that observed in forskolin-treated cells | increased ciliary levels of FLAG-Gli2 |  |  | 
4 | N#CC(C(=O)c1ccc(Cl)cc1Cl)=C1NC(=O)c2ccccc2N1 [Compound 18] | both decreased total FLAG-Gli2 levels and prevented Shh dependent stabilization of full-length FLAG-Gli2 |  |  | increased ciliary levels of FLAG-Gli2 | truncated primary cilia; also recorded: inhibits primary cilia formation | promoted accumulation of FLAG-Gli1 at the distal tip of this organelle relative to total FLAG-Gli1 levels | reduced cytoplasmic levels of the transcription factor but retained nuclear FLAG-Gli1
